Key:
[1] = tested on: resected pancreatic cancer; conditions: in vivo
[2] = tested on: resectable pancreatic cancer; conditions: postoperative gemcitabine versus no gemcitabine; cited from earlier work
[3] = tested on: DC vaccine-induced T-cell proliferation; conditions: concomitant administration of gemcitabine and the DC vaccine; cited from earlier work

Compound: Nc1ccn([C@@H]2O[C@H](CO)[C@@H](O)C2(F)F)c(=O)n1 [gemcitabine, 4-amino-1-(2-deoxy-2,2-difluoro-β-D-erythro-pentofuranosyl)pyrimidin-2(1H)-on]
- principal adverse event related to gemcitabine ([1]; human, 6 four-week cycles): grade 3/4 neutropenia
- serious adverse events considered related to gemcitabine [1]: pulmonary infection and two episodes of fever
- development of recurrent disease after complete resection [2]: significantly delayed
- vaccine-induced immune response [3]: significantly impaired
